From ChEMBL document CHEMBL1201862, “PubChem BioAssay data set” (2004)
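Each compound was tested at five concentrations against cells in 96-well plates for 48 hours. GI50: concentration for 50% inhibition of growth.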 Calls of active or inactive are those of the source. Rule as the data show it: active = GI50 up to about 1.1 µM and inactive = higher.

Key:
Assay in all cases: NCI-60 cell line screen, 48 h
U-251 = test system: U-251
HT-29 = test system: HT-29
CCRF-CEM = test system: CCRF-CEM
K562 = test system: K562
SN12C = test system: SN12C
MCF7 = test system: MCF7
786-0 = test system: 786-0
SW-620 = test system: SW-620
PC-3 = test system: PC-3
SK-MEL-28 = test system: SK-MEL-28
NCI-H226 = test system: NCI-H226
MOLT-4 = test system: MOLT-4
SR = test system: SR
SK-MEL-5 = test system: SK-MEL-5
Hs-578T = test system: Hs-578T
OVCAR-5 = test system: OVCAR-5
RPMI-8226 = test system: RPMI-8226
OVCAR-4 = test system: OVCAR-4
HCT-116 = test system: HCT-116
NCI-H460 = test system: NCI-H460
SF-268 = test system: SF-268
HCT-15 = test system: HCT-15
UACC-257 = test system: UACC-257
SNB-75 = test system: SNB-75
OVCAR-8 = test system: OVCAR-8
TK-10 = test system: TK-10
OVCAR-3 = test system: OVCAR-3
SF-539 = test system: SF-539
NCI-H23 = test system: NCI-H23
HCC 2998 = test system: HCC 2998
MDA-MB-435 = test system: MDA-MB-435
HOP-62 = test system: HOP-62
ACHN = test system: ACHN
SF-295 = test system: SF-295
RXF 393 = test system: RXF 393
HL-60 = test system: HL-60
EKVX = test system: EKVX
IGROV-1 = test system: IGROV-1
MDA-N = test system: MDA-N
LOX IMVI = test system: LOX IMVI
A549 = test system: A549
A498 = test system: A498
SNB-19 = test system: SNB-19
DU-145 = test system: DU-145
Malme-3M = test system: Malme-3M
NCI/ADR-RES = test system: NCI/ADR-RES
HOP-92 = test system: HOP-92
NCI-H522 = test system: NCI-H522
UACC-62 = test system: UACC-62
T47D = test system: T47D
M14 = test system: M14
UO-31 = test system: UO-31
SK-MEL-2 = test system: SK-MEL-2
MDA-MB-231 = test system: MDA-MB-231
SK-OV-3 = test system: SK-OV-3
KM12 = test system: KM12
COLO 205 = test system: COLO 205
CAKI-1 = test system: CAKI-1

Nc1nc(Cl)cc(OCC2(CO)CCCCC2)n1
GI50 (U-251): 86.5 µM (inactive) | GI50 (HT-29): > 100 µM (inactive) | GI50 (CCRF-CEM): > 100 µM (inactive) | GI50 (K562): > 10 µM (inactive) | GI50 (SN12C): > 100 µM (inactive) | GI50 (MCF7): 50.5 µM (inactive) | GI50 (786-0): > 100 µM (inactive) | GI50 (SW-620): > 100 µM (inactive) | GI50 (PC-3): > 100 µM (inactive) | GI50 (SK-MEL-28): > 100 µM (inactive) | GI50 (NCI-H226): > 100 µM (inactive) | GI50 (MOLT-4): > 100 µM (inactive) | GI50 (SR): > 100 µM (inactive) | GI50 (SK-MEL-5): 40.9 µM (inactive) | GI50 (Hs-578T): > 100 µM (inactive) | GI50 (OVCAR-5): > 100 µM (inactive) | GI50 (RPMI-8226): 60.5 µM (inactive) | GI50 (OVCAR-4): > 100 µM (inactive) | GI50 (HCT-116): > 100 µM (inactive) | GI50 (NCI-H460): > 100 µM (inactive) | GI50 (SF-268): > 100 µM (inactive) | GI50 (HCT-15): 24.5 µM | GI50 (UACC-257): 78.7 µM (inactive) | GI50 (SNB-75): 66.1 µM (inactive) | GI50 (OVCAR-8): 96.6 µM (inactive) | GI50 (TK-10): > 100 µM (inactive) | GI50 (OVCAR-3): > 100 µM (inactive) | GI50 (SF-539): > 100 µM (inactive) | GI50 (NCI-H23): > 100 µM (inactive) | GI50 (HCC 2998): 24.8 µM (inactive) | GI50 (MDA-MB-435): > 100 µM (inactive) | GI50 (HOP-62): > 100 µM (inactive) | GI50 (ACHN): > 100 µM (inactive) | GI50 (SF-295): > 100 µM (inactive) | GI50 (RXF 393): 63.7 µM (inactive) | GI50 (HL-60): 85.7 µM (inactive) | GI50 (EKVX): 84.7 µM (inactive) | GI50 (IGROV-1): > 100 µM (inactive) | GI50 (MDA-N): > 100 µM (inactive) | GI50 (LOX IMVI): > 100 µM (inactive) | GI50 (A549): 69.7 µM (inactive) | GI50 (A498): 40.7 µM (inactive) | GI50 (SNB-19): > 100 µM (inactive) | GI50 (DU-145): > 100 µM (inactive) | GI50 (Malme-3M): > 100 µM (inactive) | GI50 (NCI/ADR-RES): > 100 µM (inactive) | GI50 (HOP-92): 40.7 µM (inactive) | GI50 (NCI-H522): 53.1 µM (inactive)

O=C1[C@@H]2C[C@@H](O)CN2C(=O)c2ccccc2N1CCCO
GI50 (U-251): > 100 µM (inactive) | GI50 (HT-29): > 100 µM (inactive) | GI50 (K562): > 100 µM (inactive) | GI50 (SN12C): > 100 µM (inactive) | GI50 (MCF7): > 100 µM (inactive) | GI50 (786-0): > 100 µM (inactive) | GI50 (SW-620): > 100 µM (inactive) | GI50 (PC-3): > 100 µM (inactive) | GI50 (UACC-62): > 100 µM (inactive) | GI50 (SK-MEL-28): > 100 µM (inactive) | GI50 (NCI-H226): > 100 µM (inactive) | GI50 (MOLT-4): 82 µM (inactive) | GI50 (Hs-578T): > 100 µM (inactive) | GI50 (OVCAR-5): > 100 µM (inactive) | GI50 (RPMI-8226): > 100 µM (inactive) | GI50 (HCT-116): > 100 µM (inactive) | GI50 (NCI-H460): > 100 µM (inactive) | GI50 (SF-268): > 100 µM (inactive) | GI50 (HCT-15): > 100 µM | GI50 (T47D): > 100 µM (inactive) | GI50 (UACC-257): > 100 µM (inactive) | GI50 (SNB-75): > 100 µM (inactive) | GI50 (OVCAR-8): > 100 µM (inactive) | GI50 (TK-10): > 100 µM (inactive) | GI50 (OVCAR-3): > 100 µM (inactive) | GI50 (M14): > 100 µM (inactive) | GI50 (SF-539): > 100 µM (inactive) | GI50 (MDA-MB-435): > 100 µM (inactive) | GI50 (HOP-62): > 100 µM (inactive) | GI50 (ACHN): > 100 µM (inactive) | GI50 (SF-295): > 100 µM (inactive) | GI50 (UO-31): > 100 µM (inactive) | GI50 (SK-MEL-2): > 100 µM (inactive) | GI50 (MDA-MB-231): > 100 µM (inactive) | GI50 (EKVX): > 100 µM (inactive) | GI50 (SK-OV-3): > 100 µM (inactive) | GI50 (IGROV-1): > 100 µM (inactive) | GI50 (MDA-N): > 100 µM (inactive) | GI50 (LOX IMVI): > 100 µM (inactive) | GI50 (A549): > 100 µM (inactive) | GI50 (A498): > 100 µM (inactive) | GI50 (SNB-19): > 100 µM (inactive) | GI50 (DU-145): > 100 µM (inactive) | GI50 (KM12): > 100 µM (inactive) | GI50 (NCI/ADR-RES): > 100 µM (inactive) | GI50 (HOP-92): > 100 µM (inactive) | GI50 (NCI-H522): > 100 µM (inactive)

CC(C)(Oc1ccccc1)C(=O)Sc1c(-c2ccccc2)c(=O)n(-c2ccccc2)c(=S)n1-c1ccccc1
GI50 (U-251): 21.6 µM (inactive) | GI50 (HT-29): 50.9 µM (inactive) | GI50 (CCRF-CEM): 25.9 µM (inactive) | GI50 (K562): 41.4 µM (inactive) | GI50 (SN12C): 51.3 µM (inactive) | GI50 (MCF7): 46.6 µM (inactive) | GI50 (786-0): 31.2 µM (inactive) | GI50 (SW-620): 88.3 µM (inactive) | GI50 (UACC-62): 80 µM (inactive) | GI50 (SK-MEL-28): 49.7 µM (inactive) | GI50 (NCI-H226): 31.1 µM (inactive) | GI50 (MOLT-4): 36.4 µM (inactive) | GI50 (SR): 22.1 µM (inactive) | GI50 (Hs-578T): 24.2 µM (inactive) | GI50 (OVCAR-5): 75.3 µM (inactive) | GI50 (OVCAR-4): 32.9 µM (inactive) | GI50 (HCT-116): 50.1 µM (inactive) | GI50 (NCI-H460): 27.3 µM (inactive) | GI50 (SF-268): 26.9 µM (inactive) | GI50 (HCT-15): 56.6 µM | GI50 (T47D): 64.3 µM (inactive) | GI50 (UACC-257): > 100 µM (inactive) | GI50 (SNB-75): > 100 µM (inactive) | GI50 (OVCAR-8): 18.6 µM (inactive) | GI50 (TK-10): 92.5 µM (inactive) | GI50 (OVCAR-3): 32 µM (inactive) | GI50 (M14): 27 µM (inactive) | GI50 (SF-539): 23.8 µM (inactive) | GI50 (NCI-H23): > 100 µM (inactive) | GI50 (HCC 2998): 46.8 µM (inactive) | GI50 (MDA-MB-435): 20.6 µM (inactive) | GI50 (HOP-62): 22 µM (inactive) | GI50 (ACHN): 33.1 µM (inactive) | GI50 (SF-295): 59.8 µM (inactive) | GI50 (RXF 393): 26.4 µM (inactive) | GI50 (UO-31): 65.3 µM (inactive) | GI50 (MDA-MB-231): 28.8 µM (inactive) | GI50 (HL-60): 25.9 µM (inactive) | GI50 (EKVX): > 100 µM (inactive) | GI50 (SK-OV-3): 26.7 µM (inactive) | GI50 (IGROV-1): 22.6 µM (inactive) | GI50 (MDA-N): 56.8 µM (inactive) | GI50 (COLO 205): 39.8 µM (inactive) | GI50 (LOX IMVI): 49.5 µM (inactive) | GI50 (A549): 43.3 µM (inactive) | GI50 (A498): 80.9 µM (inactive) | GI50 (SNB-19): 47.2 µM (inactive) | GI50 (DU-145): 95.9 µM (inactive) | GI50 (KM12): 31.8 µM (inactive) | GI50 (Malme-3M): 95.5 µM (inactive) | GI50 (NCI/ADR-RES): 62.7 µM (inactive) | GI50 (CAKI-1): > 100 µM (inactive) | GI50 (HOP-92): > 100 µM (inactive) | GI50 (NCI-H522): 21.9 µM (inactive)
